Data taken from patent US20240360089A1, “Metabolically Stable HDAC Inhibitors with Trifluoromethylpyruvamide as Metal-Binding Group” (The University of Toledo, priority 2023, published 2024).
Where two headings read alike, the source gives them in different places.

Experiments:
HCT116 cells = assay: Growth inhibition / cell viability assay (methylene blue), HCT116; format: cell-based, human
Description: Cell feasibility was examined using methylene blue staining. Cells were plated at a rate of 5000/well in 96 well plates (n=3) respectively and treated the next day. Three days after treatment, cells were fixed/stained in methylene blue saturated in 50% ethanol for 30 min at room temperature. Excessive water was used to wash off extra dye from the plates.

[1] = S9 fraction metabolic stability assay (LC-ESI-MS); format: in vitro ADME; details: human liver S9 fraction
Description: Previous studies established that trifluoromethyl ketones are metabolically unstable and reduced in vivo to trifluoromethyl alcohols (TFMAs). This metabolic reduction caused a major loss in activity. […] It was believed that in TFPAs, the hydrate form of the ketone is stabilized compared to TFMKs, and is therefore less susceptible to reductive metabolism. […] Metabolic stability studies are primarily conducted using liver microsomal assays, as the predominant cytochrome P450 enzymes present in them are responsible for the metabolism of most xenobiotics in the human body. However, P450 transformations are mostly oxidative in nature, precluding their use to assess the stability of ketone drugs against reductive metabolism. […] Thus, using a liver extract containing both cytosol and microsomal enzymes would be more appropriate for this assay. This was accomplished by using the S9 fraction, which is basically the supernatant obtained from centrifugation of hepatocytes at 9000 g and contains both liver cytosol and microsomal enzymes. LC-ESI-MS was used to monitor the reduction of TFPA 60 over time and it was compared with TFMK 91.
A protocol similar to the one previously employed by others using Human Liver S9 fractions instead of liver microsomes was used for the metabolism studies. The assay was initiated by incubating a mixture of the substrate (0.02 mM), buffer (0.1M), and NADPH (1 mM) at 37° C. for ten minutes, followed by addition of the S9 fraction (0.5 mg) to the mixture and gentle mixing. The total volume of the reaction mixture was maintained at 1 mL. […] The reactions in the aliquots were terminated by adding an equal volume of ethyl acetate, mixing thoroughly, and transferring into micro centrifuge tubes. They were vortexed for 2 minutes and then subjected to centrifugation at 10,000×g for 15 minutes to remove the proteins. The top organic layers were extracted and evaporated under reduced pressure. The organic residues from the aliquots were dissolved in methanol first, then diluted 1:1 with water, and analyzed using LC-ESI-MS. A 450 μL aliquot of compound 60 with concentration of 0.02 mM contains 9 nanomoles, which after evaporation, was dissolved in 500 μL of methanol to give 18 μM in concentration of 60. This was diluted 1:1 with water to give a final concentration of 9 μM, which was used for LC-ESI-MS. Similarly, 200 μL of TFMK 91 at a concentration of 0.02 mM contains 4 nanomoles, which after removing ethyl acetate, and dissolving in 250 μL of methanol gives 16 μM concentration of 91. This was diluted 1:1 with water to give 8 μM final concentration for LC-ESI-MS.
The solvent flow rate was 0.2 mL/min, and the sample injection volume was 20 μL. […]

sixty cell lines [2] = assay: NCI 60 cell five-dose assay; format: cell-based; details: Total Growth Inhibition
sixty cell lines [3] = assay: NCI 60 cell one-dose assay; format: cell-based; details: result in words
PARP1 = assay: Western blot analysis of PARP1 cleavage in HCT116 cells; format: cell-based, human; details: HCT116 cells treated for 24 h; measure of caspase dependent cell death
Description: FIG. 13: Western blot analysis of PARP1 cleavage. HCT116 cells were treated with compounds 83, 84, and 85 at the indicated concentrations for 24 hr. Western blots were probed with an antibody that recognizes a cleaved form of PARP (Cell Signaling Technology 5626) as a measure of caspase dependent cell death.
To determine whether the compounds herein induced apoptosis, the enzyme Poly (ADP ribose) polymerase 1 (PARP1) was analyzed by western blotting. Caspase-dependent proteolytic cleavage of PARP1 is one of the hall marks of apoptosis and antibodies that specifically recognize the cleavage products are available. […] HCT116 cells were treated with compounds 83, 84, and 85 for 24 h.
NCI-H522 cell pellets obtained were lysed using lysis buffer containing 50 mM Tris (pH 7.4), 150 mM NaCl, 0.5% NP-40, (supplemented with 1 μg/ml aprotinin, 2 μg/ml leupeptin, 1 μg/ml pepstatin A, 1 mM DTT, and […]) for 30 minutes on ice and centrifuged at 13×10^3 g for 25 minutes at 4° C. The protein levels of the obtained lysates were normalized using BCA Protein Assay Kit (Pierce) and separated by SDS-polyacrylamide gel electrophoresis (12.5% acrylamide). Transfer to polyvinylidene difluoride membranes (Millipore) was followed by obstruction of membranes with blocking buffer containing 5% (w/v) non-fat dry milk dissolved in PBST [1×PBS containing 0.05% (v/v) Tween 20] for 1 hour at room temperature. Membranes were then incubated with corresponding primary antibodies overnight at 4° C. The membranes were then washed (3×15 min each) with PBST and incubated with secondary antibodies conjugated to horse-radish peroxidase, obtained from Biorad, and used at a dilution of 1:10,000. Bound antibodies were detected using enhanced chemiluminescence (Biorad).

[4] = Homo sapiens, HCT-116, cap group SAR, HCT116 cell line, maximum concentration of 40 μM, read-out: IC50
[5] = Homo sapiens, HCT-116, zinc-binding group screen, growth inhibition, HCT116 cells, maximum concentration of 100 μM, read-out: HCT116 IC50
[6] = zinc-binding group screen, growth inhibition, HCT116 cells, maximum concentration of 100 μM
[7] = Homo sapiens, HCT-116, read-out: IC50 (μM) HCT116

COc1cccc(NC(=O)CCCCCCNC(=O)C(O)(O)C(F)(F)F)c1 [Compound 59, N-(3-methoxyphenyl)-7-(3,3,3-trifluoro-2,2-dihydroxypropanamido)heptanamide]
IC50 (HCT116 cells; [4]): 6.11 µM
melting point: 120 to 125 °C

O=C(CCCCCCNC(=O)C(O)(O)C(F)(F)F)Nc1ccccc1Br [Compound 75, N-(2-bromophenyl)-7-(3,3,3-trifluoro-2,2-dihydroxypropanamido)heptanamide]
IC50 (HCT116 cells; [4]): 14.5 µM
melting point: 108 to 113 °C

NC(=O)C(=O)NCCCCCC(=O)Nc1ccccc1
IC50 (HCT116 cells; [5]): > 100 µM

COc1ccccc1NC(=O)CCCCCCNC(=O)C(O)(O)C(F)(F)F [Compound 66, N-(2-methoxyphenyl)-7-(3,3,3-trifluoro-2,2-dihydroxypropanamido)heptanamide]
IC50 (HCT116 cells; [4]): 10.1 µM
melting point: 105 to 110 °C

O=C(CCCCCCCNC(=O)c1cc(=O)c(O)co1)Nc1ccccc1 [Compound 89]
HCT116 IC50 (HCT116 cells; [6]): inactive

C/C(=N\O)C(=O)NCCCCCC(=O)Nc1ccccc1
IC50 (HCT116 cells; [5]): > 100 µM

O=C(CCCCCCNC(=O)C(O)(O)C(F)(F)F)Nc1nc(-c2ccccc2)c(-c2ccccc2)s1 [Compound 68, N-(4,5-diphenylthiazol-2-yl)-7-(3,3,3-trifluoro-2,2-dihydroxypropanamido)heptanamide]
IC50 (HCT116 cells; [4]): 29.9 µM
melting point: 143 to 148 °C

O=C(CCCCCCNC(=O)C(O)(O)C(F)(F)F)Nc1ccccc1 [Compound 10c, N-phenyl-7-(3,3,3-trifluoro-2,2-dihydroxypropanamido)heptanamide]
IC50 (HCT116 cells; [7]): 9.14 µM
melting point: 123 to 128 °C

NC(=O)C(=O)NCCCCCCCC(=O)Nc1ccccc1
IC50 (HCT116 cells; [5]): > 100 µM

O=C(CCCCCNC(=O)c1ccc[nH]1)Nc1ccccc1
IC50 (HCT116 cells; [5]): > 100 µM

O=C(CCCCCCNC(=O)C(O)(O)C(F)(F)F)Nc1nccs1 [Compound 60, N-(thiazol-2-yl)-7-(3,3,3-trifluoro-2,2-dihydroxypropanamido)heptanamide]
time over which parent M+1 peak did not disappear ([1]; NADPH, 37° C., LC-ESI-MS, aliquots at 1h, 2 hrs): over 2 hours
metabolic reduction to the alcohol ([1]; result in words): no reduction to the alcohol
melting point: 137 to 142 °C

O=C(CCCCCCNC(=O)C(O)(O)C(F)(F)F)Nc1ccc(Cl)cc1 [Compound 64, N-(4-chlorophenyl)-7-(3,3,3-trifluoro-2,2-dihydroxypropanamido)heptanamide]
TGI (sixty cell lines [2]): 26.92 µM

O=C(CCCCCCNC(=O)C(O)C(F)(F)F)Nc1nccs1 (stereo not shown) [drawing 78]
IC50 (HCT116 cells; [4]): > 40 µM

CC(=O)C(=O)NCCCCCC(=O)Nc1ccccc1
IC50 (HCT116 cells; [5]): > 100 µM

CC(=O)C(=O)NCCCCC(=O)Nc1ccccc1
IC50 (HCT116 cells; [5]): > 100 µM

O=C(CCCCCNC(=O)c1cc(=O)c(O)co1)Nc1ccccc1
IC50 (HCT116 cells; [5]): > 100 µM

O=C(CCCCCCNC(=O)C(O)(O)C(F)(F)F)Nc1ccc(Br)cc1 [Compound 65, N-(4-bromophenyl)-7-(3,3,3-trifluoro-2,2-dihydroxypropanamido)heptanamide]
TGI (sixty cell lines [2]): 20.89 µM

OC(c1c(F)c(F)c(-n2cc(-c3ccccc3)nn2)c(F)c1F)C(F)(F)F (stereo not shown)
IC50 (HCT116 cells; [5]): > 100 µM

O=C(CCCCNC(=O)c1cc(=O)c(O)co1)Nc1ccccc1
IC50 (HCT116 cells; [5]): > 100 µM

OC(O)(c1c(F)c(F)c(-n2cc(-c3ccccc3)nn2)c(F)c1F)C(F)(F)F
IC50 (HCT116 cells; [5]): > 100 µM

CCOc1ccc(-c2cnc(NC(=O)CCCCCCNC(=O)C(O)(O)C(F)(F)F)s2)cc1 [Compound 87, N-(5-(4-ethoxyphenyl)thiazol-2-yl)-7-(3,3,3-trifluoro-2,2-dihydroxypropanamido)heptanamide]
IC50 (HCT116 cells; [4]): 4.05 µM
melting point: 138 to 143 °C

O=C(CCCCCCNC(=O)C(O)C(F)(F)F)Nc1nccs1 (stereo not shown) [Compound 92]
IC50 (HCT116 cells; cap group SAR, HCT116 cell line, maximum concentration of 40 μM): inactive

O=C(CCCCCCNC(=O)C(O)(O)C(F)(F)F)Nc1ncc(-c2ccc(O)cc2)s1 [Compound 86, N-(5-(4-hydroxyphenyl)thiazol-2-yl)-7-(3,3,3-trifluoro-2,2-dihydroxypropanamido) heptanamide]
melting point: 145 to 150 °C

CC(=O)C(=O)NCCCCCCC(=O)Nc1ccccc1
IC50 (HCT116 cells; [5]): > 100 µM

O=C(CCCCCNC(=O)C(O)(O)C(F)(F)F)Nc1ccccc1 [Compound 10b, N-phenyl-6-(3,3,3-trifluoro-2,2-dihydroxypropanamido)hexanamide]
IC50 (HCT116 cells; [7]): 54.4 µM
IC50 (HCT116 cells; [5]): 54.4 µM
HCT116 IC50 (HCT116 cells; [6]): demonstrated antiproliferative activity
melting point: 103 to 108 °C

O=C(CCCCCCCNC(=O)c1cc(=O)c(O)co1)Nc1ccccc1 [drawing 33]
IC50 (HCT116 cells; [5]): > 100 µM

O=C(CCCCCCNC(=O)C(O)(O)C(F)(F)F)Nc1ncc(-c2ccc(Br)cc2)s1 [Compound 85, N-(5-(4-bromophenyl)thiazol-2-yl)-7-(3,3,3-trifluoro-2,2-dihydroxypropanamido)heptanamide]
cytostatic / cytotoxic activity in NCI 60 assays (sixty cell lines [3]): cytotoxic effects
TGI (sixty cell lines [2]): 11.4 µM
PARP1 cleavage (cleaved PARP1) (PARP1): Dose-dependent elevation of cleaved PARP1 was detectable

NC(=O)C(=O)NCCCCC(=O)Nc1ccccc1
IC50 (HCT116 cells; [5]): > 100 µM

O=C(CCCCCCNC(=O)C(O)(O)C(F)(F)F)Nc1ccc(-c2ccccc2)cc1 [Compound 69, N-([1,1′-biphenyl]-4-yl)-7-(3,3,3-trifluoro-2,2-dihydroxypropanamido)heptanamide]
TGI (sixty cell lines [2]): 15.14 µM

O=C(CCCCCCNC(=O)c1cc(=O)c(O)co1)Nc1ccccc1
IC50 (HCT116 cells; [5]): > 100 µM

O=C(CCCCCCC(O)C(F)(F)F)Nc1ccccc1 (stereo not shown)
IC50 (HCT116 cells; [4]): > 40 µM

C/C(=N\O)C(=O)NCCCCCCC(=O)Nc1ccccc1
IC50 (HCT116 cells; [5]): > 100 µM

C/C(=N\O)C(=O)NCCCCC(=O)Nc1ccccc1
IC50 (HCT116 cells; [5]): > 100 µM
